Here are results for four compounds from article PMC5242521 (PLoS ONE, 2017).

Like-named read-outs stand apart in the source and are kept apart here.

The target in one data set is T1, OATP2B1 (Homo sapiens, UniProt O94956).
T1 sequence (O94956 1-709): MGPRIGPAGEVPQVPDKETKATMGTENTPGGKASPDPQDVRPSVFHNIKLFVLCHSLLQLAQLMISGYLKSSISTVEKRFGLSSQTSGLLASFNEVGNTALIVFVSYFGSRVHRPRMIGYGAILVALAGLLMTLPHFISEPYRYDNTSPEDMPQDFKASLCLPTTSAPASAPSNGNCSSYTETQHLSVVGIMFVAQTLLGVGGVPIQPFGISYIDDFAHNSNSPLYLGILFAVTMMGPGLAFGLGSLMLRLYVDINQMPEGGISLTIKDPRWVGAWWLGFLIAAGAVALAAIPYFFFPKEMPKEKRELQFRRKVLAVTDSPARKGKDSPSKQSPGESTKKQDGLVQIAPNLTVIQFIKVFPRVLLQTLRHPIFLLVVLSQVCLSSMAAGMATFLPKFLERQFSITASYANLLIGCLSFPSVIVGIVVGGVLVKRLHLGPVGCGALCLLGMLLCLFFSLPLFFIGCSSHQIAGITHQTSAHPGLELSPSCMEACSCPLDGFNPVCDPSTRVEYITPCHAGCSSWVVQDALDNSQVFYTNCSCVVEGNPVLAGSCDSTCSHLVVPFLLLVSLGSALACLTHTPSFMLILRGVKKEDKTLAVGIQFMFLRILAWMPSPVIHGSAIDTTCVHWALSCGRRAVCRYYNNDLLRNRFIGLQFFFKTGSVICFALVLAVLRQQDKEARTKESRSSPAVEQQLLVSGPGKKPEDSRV
The data set is described as follows: OATP2B1 activity: E3S accumulation in HEK-OATP2B1 cells. The note with it: for effect on OATP2B1 activity: pyrethroid 100 μM. The method, then:
(§1) The effects of pyrethroids on activity of ABC and SLC transporters were determined through measuring cellular accumulation or retention of fluorescent or radiolabeled reference substrates for transporters, in the presence or absence of reference inhibitors, as previously described. The nature of cells and reference substrates and inhibitors used for transport assays are summarized in S3 Table.
(§2) The nature of substrates and reference inhibitors and the incubation times with substrates, that varied according to the transporter, were selected in agreement with previous studies and are indicated in S3 Table. The total incubation volume with substrates was 200 μL/well. […] An aliquot of cell lysate (5 μL) was then taken for determining cellular protein content by the Bradford method.
(§3) Intracellular concentrations of reference substrates were initially expressed as fluorescence arbitrary units (for fluorescent dye substrates) or as moles (for radiolabeled substrates) and normalized to cellular protein content, determined by the Bradford method. They were finally used for calculating percentage of transporter activity, according to the following equations [41, 45]: %ABCtransporter activity=([Substrateref inh]-[Substratepyrethroid])×100/([Substrateref inh]-[Substratecontrol]) (1) %SLC transporter activity=([Substratepyrethroid]-[Substratref inh])×100/([Substratecontrol]-[Substrateref inh]) (2) with [Substratepyrethroid] = cellular concentration of reference substrate in the presence of pyrethroid, [Substrateref inh] = cellular concentration of reference substrate in the presence of reference inhibitor and [Substratecontrol] = cellular concentration of reference substrate in control cells not exposed to pyrethroid or reference inhibitor.
(§4) The initial tested concentration of pyrethroids was 100 μM. […] Such concentrations were calculated using GraphPad Prism software (GraphPad Software, La Jolla, CA), through nonlinear regression based on the four parameter logistic function using the following equations: […]

Another data set concerns the target T2, OCT1 (Homo sapiens, UniProt O15245).
T2 sequence (O15245 1-554): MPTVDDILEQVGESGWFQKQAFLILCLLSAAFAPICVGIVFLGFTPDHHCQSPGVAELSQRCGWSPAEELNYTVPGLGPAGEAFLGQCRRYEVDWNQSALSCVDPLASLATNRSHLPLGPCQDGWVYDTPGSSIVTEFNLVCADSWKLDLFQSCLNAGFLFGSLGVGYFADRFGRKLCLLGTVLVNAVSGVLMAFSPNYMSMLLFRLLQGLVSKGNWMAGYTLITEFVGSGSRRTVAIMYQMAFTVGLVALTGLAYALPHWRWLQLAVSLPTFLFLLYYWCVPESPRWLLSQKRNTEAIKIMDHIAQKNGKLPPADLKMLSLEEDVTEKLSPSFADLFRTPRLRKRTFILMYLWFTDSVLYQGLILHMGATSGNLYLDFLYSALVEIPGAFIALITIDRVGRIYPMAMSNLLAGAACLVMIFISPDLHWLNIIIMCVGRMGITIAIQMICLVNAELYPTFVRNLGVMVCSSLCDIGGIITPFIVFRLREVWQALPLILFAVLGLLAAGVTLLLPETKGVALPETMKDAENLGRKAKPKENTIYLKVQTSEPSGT
The data set is described as follows: OCT1 activity: DAPI accumulation in HEK-OCT1 cells. The settings on record: for effect on OCT1 activity: pyrethroid 100 μM; for effect on OCT1 activity / IC50: DAPI; for IC50: IC50 for OCT1 inhibition, HEK-OCT1 cells; for inhibition at 100 μM: human, pH 7.4. The method, then: as §1, §2, §3, §4

The target in the next data set is T3, MRP2 (Homo sapiens, UniProt Q92887).
T3 construct: multidrug resistance-associated protein (MRP) 2/ABCC2-expressing human hepatoma HuH-7 cells; endogenous in cells; host or cells: HuH-7 human hepatoma cells
The data set is described as follows: MRP2 activity: CF accumulation in HuH-7 cells. The data set is classed as cell-based. The settings on record: for inhibition at 100 μM: human, pH 7.4. The method, then:
(§5) The initial tested concentration of pyrethroids was 100 μM.

The target of another data set is T4, MATE1 (Homo sapiens, UniProt Q96FL8).
T4 construct: host or cells: HEK293
T4 sequence (Q96FL8 1-570): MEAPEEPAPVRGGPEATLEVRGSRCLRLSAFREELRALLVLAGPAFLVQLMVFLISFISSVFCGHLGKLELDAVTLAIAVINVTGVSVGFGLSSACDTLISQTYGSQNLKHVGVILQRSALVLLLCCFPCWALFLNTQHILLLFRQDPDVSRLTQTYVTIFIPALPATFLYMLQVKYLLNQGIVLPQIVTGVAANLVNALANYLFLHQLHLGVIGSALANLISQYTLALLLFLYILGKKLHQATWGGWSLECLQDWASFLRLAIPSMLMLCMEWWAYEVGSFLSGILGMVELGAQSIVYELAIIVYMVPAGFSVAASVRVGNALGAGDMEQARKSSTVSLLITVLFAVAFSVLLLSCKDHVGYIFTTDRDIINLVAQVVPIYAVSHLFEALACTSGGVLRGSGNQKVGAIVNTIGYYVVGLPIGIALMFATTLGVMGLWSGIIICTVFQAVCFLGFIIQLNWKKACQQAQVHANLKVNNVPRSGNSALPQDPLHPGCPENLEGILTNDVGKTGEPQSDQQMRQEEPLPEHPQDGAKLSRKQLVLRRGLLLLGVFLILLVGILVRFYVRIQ
As to the kind of experiment: MATE1 activity: TEA accumulation in HEK-MATE1 cells. The data set is classed as cell-based. The settings on record: for inhibition at 100 μM: human, pH 8.4. The protocol:
as §5

T3 sequence (Q92887 whole entry): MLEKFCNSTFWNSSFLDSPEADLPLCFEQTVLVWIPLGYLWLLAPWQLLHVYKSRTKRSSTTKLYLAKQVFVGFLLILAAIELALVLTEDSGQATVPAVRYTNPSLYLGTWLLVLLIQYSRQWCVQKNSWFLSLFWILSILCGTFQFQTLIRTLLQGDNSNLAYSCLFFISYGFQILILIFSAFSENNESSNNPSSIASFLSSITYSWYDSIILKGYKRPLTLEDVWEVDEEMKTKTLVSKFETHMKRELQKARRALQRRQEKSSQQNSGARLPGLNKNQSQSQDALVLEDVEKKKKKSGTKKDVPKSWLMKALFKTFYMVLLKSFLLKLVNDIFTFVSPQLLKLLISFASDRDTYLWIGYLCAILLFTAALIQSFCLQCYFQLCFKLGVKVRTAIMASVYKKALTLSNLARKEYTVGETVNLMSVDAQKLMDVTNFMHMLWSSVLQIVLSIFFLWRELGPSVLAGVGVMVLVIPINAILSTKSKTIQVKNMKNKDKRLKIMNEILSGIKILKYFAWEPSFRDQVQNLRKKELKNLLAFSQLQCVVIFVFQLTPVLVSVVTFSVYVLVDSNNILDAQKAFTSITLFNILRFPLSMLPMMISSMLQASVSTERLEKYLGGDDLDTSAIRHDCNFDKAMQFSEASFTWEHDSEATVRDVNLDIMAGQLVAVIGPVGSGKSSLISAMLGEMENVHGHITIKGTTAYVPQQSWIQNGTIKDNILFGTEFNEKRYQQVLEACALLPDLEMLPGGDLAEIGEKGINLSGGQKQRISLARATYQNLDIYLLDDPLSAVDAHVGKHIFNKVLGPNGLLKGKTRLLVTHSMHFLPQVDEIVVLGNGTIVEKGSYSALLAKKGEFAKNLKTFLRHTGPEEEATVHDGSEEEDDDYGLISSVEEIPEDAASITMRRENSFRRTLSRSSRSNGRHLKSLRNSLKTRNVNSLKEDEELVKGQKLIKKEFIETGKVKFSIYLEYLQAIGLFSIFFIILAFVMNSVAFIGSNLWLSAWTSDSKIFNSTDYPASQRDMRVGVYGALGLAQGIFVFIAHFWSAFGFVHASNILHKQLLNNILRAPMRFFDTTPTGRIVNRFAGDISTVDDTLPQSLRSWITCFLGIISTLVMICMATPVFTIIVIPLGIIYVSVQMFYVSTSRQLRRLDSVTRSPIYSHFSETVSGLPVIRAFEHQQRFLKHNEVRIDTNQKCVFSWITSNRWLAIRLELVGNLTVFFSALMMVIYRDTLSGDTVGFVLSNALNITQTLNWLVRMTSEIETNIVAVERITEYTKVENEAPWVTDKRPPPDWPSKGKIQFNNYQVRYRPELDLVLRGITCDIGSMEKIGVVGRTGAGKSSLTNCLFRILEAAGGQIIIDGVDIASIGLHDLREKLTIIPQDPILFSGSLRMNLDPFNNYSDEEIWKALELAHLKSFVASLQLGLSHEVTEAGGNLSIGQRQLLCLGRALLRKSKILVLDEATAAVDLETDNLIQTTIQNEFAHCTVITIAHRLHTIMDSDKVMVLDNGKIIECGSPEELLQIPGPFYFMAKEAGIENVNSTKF

As to `C#CCN1CC(=O)N(COC(=O)[C@@H]2C(C=C(C)C)C2(C)C)C1=O` (mixture of isomers) [imiprothrin], the “effect on OATP2B1 activity” value at OATP2B1 was “cis-stimulated”. In addition, at OCT1, the “effect on OCT1 activity” value is “markedly inhibited”.

For orientation: IC50 means the concentration that inhibits the measured activity by half. Usually inhibition stands for the relative decrease from the control value, in per cent. A word on the EC50: it is the concentration giving half of the maximal effect. Low values mean an effect from little substance, high ones a need for much substance. `C=CCC1=C(C)C(OC(=O)C2C(C=C(C)C)C2(C)C)CC1=O` (stereo not shown) [allethrin]: the IC50 came to 48.2 µM on MRP2, 50.2 µM against MATE1 and 2.6 µM on OCT1. Also, the figures for the inhibition at 100 μM on MRP2, against MATE1 and against OCT1 were 83.8%, over 79% and 87.9%, respectively. On OATP2B1, this compound gave an EC50 of 37.8 µM. Moreover, the “effect on OATP2B1 activity” value on OATP2B1 is on record as “cis-stimulated”.

With `C#CCC1=C(C)C(OC(=O)C2C(C=C(C)C)C2(C)C)CC1=O` (stereo not shown) [prallethrin], on OATP2B1, the “effect on OATP2B1 activity” value is listed as “cis-stimulated”. For the same compound, on OCT1, the “effect on OCT1 activity” value is reported as “markedly inhibited”.

For `CC(C)=CC1C(C(=O)OCN2C(=O)C3=C(CCCC3)C2=O)C1(C)C` (stereo not shown) [tetramethrin], the IC50 against MRP2 was found to be 65.5 µM; on MATE1, 47.5 µM; on OCT1 it was 4.9 µM. Further, the inhibition at 100 μM was 58.3% on MRP2 (pyrethroid 100 μM, HuH-7 cells, CF, read-out: inhibition of MRP2 activity); over 79% on MATE1 (pyrethroid 100 μM, HEK-MATE1 cells, TEA, read-out: inhibition of MATE1 activity); 73.8% against OCT1. For the same compound, a half-maximal effect on OATP2B1 (EC50) was put at 10.1 µM.
